According to patent publication US11739098B2 (BRISTOL-MYERS SQUIBB COMPANY, priority 2017, dated 2023):

How the values were obtained:
Format in all cases: cell-based
human TLR8 = biological target: T1, human TLR8 (Homo sapiens, UniProt Q9NR97); assay: TLR8 inhibition reporter assay (HEK-Blue cells, SEAP reporter, R848 stimulation); conditions: HEK-Blue cells overexpressing human TLR8, SEAP reporter, R848 15.9 μM
T1 construct: host or cells: HEK-Blue cells (HEK293-derived reporter line)
T1 sequence (Q9NR97 27-1041): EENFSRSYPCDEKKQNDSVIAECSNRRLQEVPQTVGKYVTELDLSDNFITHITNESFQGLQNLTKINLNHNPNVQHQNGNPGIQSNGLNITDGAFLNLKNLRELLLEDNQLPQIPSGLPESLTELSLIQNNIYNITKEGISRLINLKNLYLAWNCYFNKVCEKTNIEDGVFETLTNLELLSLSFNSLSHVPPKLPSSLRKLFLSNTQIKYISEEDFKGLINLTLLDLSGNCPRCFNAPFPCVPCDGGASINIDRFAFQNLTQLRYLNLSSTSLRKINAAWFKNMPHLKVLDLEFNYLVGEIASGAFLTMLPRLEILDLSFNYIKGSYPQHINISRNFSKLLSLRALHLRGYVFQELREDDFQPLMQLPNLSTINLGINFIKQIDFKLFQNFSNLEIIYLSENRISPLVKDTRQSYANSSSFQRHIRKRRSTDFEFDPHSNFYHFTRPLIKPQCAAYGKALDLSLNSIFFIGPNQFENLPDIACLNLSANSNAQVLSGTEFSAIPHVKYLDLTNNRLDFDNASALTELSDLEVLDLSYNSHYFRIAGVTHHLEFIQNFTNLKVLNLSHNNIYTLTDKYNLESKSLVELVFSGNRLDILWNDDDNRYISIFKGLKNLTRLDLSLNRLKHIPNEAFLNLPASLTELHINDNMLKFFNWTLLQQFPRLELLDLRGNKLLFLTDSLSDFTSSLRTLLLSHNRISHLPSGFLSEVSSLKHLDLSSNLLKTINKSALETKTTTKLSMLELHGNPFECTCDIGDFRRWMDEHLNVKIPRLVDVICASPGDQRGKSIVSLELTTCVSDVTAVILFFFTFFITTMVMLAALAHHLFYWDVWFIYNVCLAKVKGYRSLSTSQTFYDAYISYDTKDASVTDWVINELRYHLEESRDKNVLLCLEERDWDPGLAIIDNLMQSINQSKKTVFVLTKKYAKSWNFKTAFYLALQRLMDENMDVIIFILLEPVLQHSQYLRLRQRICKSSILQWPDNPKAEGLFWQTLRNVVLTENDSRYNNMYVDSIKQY
In short: (§1)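 Agonists (final): TLR7 gardiquimod 7.5 μM; TLR8 R848 15.9 μM; TLR9 ODN2006 5 nM. HEK-Blue reporter cells, 30 min RT compound pre-incubation, 0.05 nM–50 μM dose range, 22 h at 37 °C, colorimetric SEAP detection medium. % inhibition relative to agonist+DMSO and known-inhibitor wells.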

human TLR7 = biological target: T2, human TLR7 (Homo sapiens, UniProt Q9NYK1); assay: TLR7 inhibition reporter assay (HEK-Blue cells, SEAP reporter, gardiquimod stimulation); conditions: HEK-Blue cells overexpressing human TLR7, SEAP reporter, gardiquimod 7.5 μM
T2 construct: host or cells: HEK-Blue cells (HEK293-derived reporter line)
T2 sequence (Q9NYK1 27-1049): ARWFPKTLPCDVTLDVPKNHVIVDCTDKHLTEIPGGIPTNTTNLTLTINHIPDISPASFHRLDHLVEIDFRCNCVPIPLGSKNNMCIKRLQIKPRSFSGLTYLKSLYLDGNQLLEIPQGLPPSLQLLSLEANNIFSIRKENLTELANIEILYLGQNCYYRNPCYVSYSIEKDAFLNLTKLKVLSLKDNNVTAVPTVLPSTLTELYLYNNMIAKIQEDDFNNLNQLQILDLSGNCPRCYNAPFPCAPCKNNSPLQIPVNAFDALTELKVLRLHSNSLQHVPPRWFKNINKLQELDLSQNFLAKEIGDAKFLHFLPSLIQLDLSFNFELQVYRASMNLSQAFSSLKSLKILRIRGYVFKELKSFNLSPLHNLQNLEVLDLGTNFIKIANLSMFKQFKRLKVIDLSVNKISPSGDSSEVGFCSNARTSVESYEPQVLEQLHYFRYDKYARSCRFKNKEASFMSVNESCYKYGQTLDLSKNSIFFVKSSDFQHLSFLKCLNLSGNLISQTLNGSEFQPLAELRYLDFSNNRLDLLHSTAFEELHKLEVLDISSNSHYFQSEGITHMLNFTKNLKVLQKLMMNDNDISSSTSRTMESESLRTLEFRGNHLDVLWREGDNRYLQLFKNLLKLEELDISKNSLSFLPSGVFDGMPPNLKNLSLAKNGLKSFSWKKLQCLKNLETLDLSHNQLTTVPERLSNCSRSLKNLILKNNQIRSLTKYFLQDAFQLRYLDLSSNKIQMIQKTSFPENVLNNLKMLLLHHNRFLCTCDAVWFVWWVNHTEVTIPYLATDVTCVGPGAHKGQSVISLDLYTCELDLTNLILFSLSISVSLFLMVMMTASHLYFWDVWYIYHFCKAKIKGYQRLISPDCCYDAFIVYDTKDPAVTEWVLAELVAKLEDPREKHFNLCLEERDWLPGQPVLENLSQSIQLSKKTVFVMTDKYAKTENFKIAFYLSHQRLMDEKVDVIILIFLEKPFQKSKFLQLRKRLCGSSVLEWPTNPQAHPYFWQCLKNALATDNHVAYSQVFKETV
In short: as §1

human TLR9 = biological target: T3, human TLR9 (Homo sapiens, UniProt Q9NR96); assay: TLR9 inhibition reporter assay (HEK-Blue cells, SEAP reporter, ODN2006 stimulation); conditions: HEK-Blue cells overexpressing human TLR9, SEAP reporter, ODN2006 5 nM
T3 construct: host or cells: HEK-Blue cells (HEK293-derived reporter line)
T3 sequence (Q9NR96 26-1032): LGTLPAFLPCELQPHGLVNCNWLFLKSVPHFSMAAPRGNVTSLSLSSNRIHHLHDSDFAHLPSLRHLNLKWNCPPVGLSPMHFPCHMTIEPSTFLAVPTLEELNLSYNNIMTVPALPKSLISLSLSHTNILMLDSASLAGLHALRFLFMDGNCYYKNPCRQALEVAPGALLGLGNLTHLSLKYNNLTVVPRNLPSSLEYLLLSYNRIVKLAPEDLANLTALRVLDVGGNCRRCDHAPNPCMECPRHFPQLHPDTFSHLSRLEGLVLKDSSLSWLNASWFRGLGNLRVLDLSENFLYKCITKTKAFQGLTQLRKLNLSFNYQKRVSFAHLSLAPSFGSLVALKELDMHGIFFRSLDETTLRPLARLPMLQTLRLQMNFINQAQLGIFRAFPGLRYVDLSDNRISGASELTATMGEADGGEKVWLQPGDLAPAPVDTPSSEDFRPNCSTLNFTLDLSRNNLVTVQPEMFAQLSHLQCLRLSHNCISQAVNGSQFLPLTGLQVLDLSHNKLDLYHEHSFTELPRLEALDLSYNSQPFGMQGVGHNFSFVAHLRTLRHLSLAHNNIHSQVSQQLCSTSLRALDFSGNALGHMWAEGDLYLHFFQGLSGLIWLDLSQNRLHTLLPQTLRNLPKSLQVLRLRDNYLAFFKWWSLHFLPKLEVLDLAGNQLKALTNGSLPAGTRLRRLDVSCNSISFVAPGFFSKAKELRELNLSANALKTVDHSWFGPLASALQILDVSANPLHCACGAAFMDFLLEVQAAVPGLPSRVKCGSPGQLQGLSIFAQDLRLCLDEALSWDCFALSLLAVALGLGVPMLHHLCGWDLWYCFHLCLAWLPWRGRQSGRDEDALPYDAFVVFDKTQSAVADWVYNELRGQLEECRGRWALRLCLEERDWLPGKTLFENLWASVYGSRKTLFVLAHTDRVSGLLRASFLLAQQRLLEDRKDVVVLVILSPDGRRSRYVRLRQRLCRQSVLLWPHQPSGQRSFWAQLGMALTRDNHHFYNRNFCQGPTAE
In short: as §1

| Compound | IC50 (human TLR8) [nM] | IC50 (human TLR7) [nM] | IC50 (human TLR9) [nM] |
| --- | --- | --- | --- |
| CCc1c(-c2ccnc3[nH]ccc23)[nH]c2ccc(C3CCN(C4CCN(C(C)C)CC4)CC3)cc12 [Example 850, 4-(3-ethyl-5-(1′-isopropyl-[1,4′-bipiperidin]-4-yl)-1H-indol-2-yl)-1H-pyrrolo[2,3-b]pyridine] | < 100 | < 100 | 100 to 1000 |
| CC(C)c1c(-c2ccnc3[nH]ncc23)[nH]c2ccc(C3CCN(C4CCN(C(C)C)CC4)CC3)cc12 [Example 821, 4-(3-isopropyl-5-(1′-isopropyl-[1,4′-bipiperidin]-4-yl)-1H-indol-2-yl)-1H-pyrazolo[3,4-b]pyridine] | < 100 | < 100 | < 100 |
| Cc1cn2cc(-c3[nH]c4ccc(C5CCNCC5)cc4c3C(C)C)cc(C(F)(F)F)c2n1 [Example 137, 6-(3-isopropyl-5-(piperidin-4-yl)-1H-indol-2-yl)-2-methyl-8-(trifluoromethyl)imidazo[1,2-a]pyridine] | 100 to 1000 | < 100 | 100 to 1000 |
| CNC(=O)CN1CCC(c2ccc3[nH]c(-c4cn(C)c5ncccc45)c(C(C)C)c3c2)CC1 [Example 293, 2-(4-(3-isopropyl-2-(1-methyl-1H-pyrrolo[2,3-b]pyridin-3-yl)-1H-indol-5-yl)piperidin-1-yl)-N-methylacetamide] | < 100 | < 100 | 1000 to 50000 |
| COc1cc(-c2[nH]c3ccc(C4CCN(C5CCOCC5)CC4)cc3c2C(C)C)cn2ccnc12 [Example 706, 6-(3-isopropyl-5-(1-(tetrahydro-2H-pyran-4-yl)piperidin-4-yl)-1H-indol-2-yl)-8-methoxyimidazo[1,2-a]pyridine] | < 100 | < 100 | 100 to 1000 |
| Cc1cc2nc(-c3[nH]c4ccc(C5CCNCC5)cc4c3C(C)C)ccn2n1 [Example 149, 5-(3-isopropyl-5-(piperidin-4-yl)-1H-indol-2-yl)-2-methylpyrazolo[1,5-a]pyrimidine] | 1000 to 50000 | 100 to 1000 | 1000 to 50000 |
| CCc1c(-c2ncnc3[nH]ccc23)[nH]c2ccc(C3CCNCC3)cc12 [Example 206, 4-(3-ethyl-5-(piperidin-4-yl)-1H-indol-2-yl)-7H-pyrrolo[2,3-d] pyrimidine] | < 100 | 100 to 1000 | 1000 to 50000 |
| CNC(=O)CN1CCC(c2ccc3[nH]c(-c4cc(C)c5oc(C)nc5c4)c(C(C)C)c3c2)CC1 [Example 339, 2-(4-(2-(2,7-dimethylbenzo[d]oxazol-5-yl)-3-isopropyl-1H-indol-5-yl)piperidin-1-yl)-N-methylacetamide] | 100 to 1000 | < 100 | 1000 to 50000 |
| CNC(=O)CN1CCC(c2ccc3[nH]c(-c4cc(OC)n5ccnc5c4)c(C(C)C)c3c2)CC1 [Example 356, 2-(4-(3-isopropyl-2-(5-methoxyimidazo[1,2-a]pyridin-7-yl)-1H-indol-5-yl)piperidin-1-yl)-N-methylacetamide] | 100 to 1000 | 100 to 1000 | 100 to 1000 |

The remaining lines, values ahead:

| IC50 (human TLR8) [nM] | IC50 (human TLR7) [nM] | IC50 (human TLR9) [nM] | Compound |
| --- | --- | --- | --- |
| < 100 | < 100 | 1000 to 50000 | Cc1cc(-c2[nH]c3ccc(C4CCN(C(=O)CN5CCCC5)CC4)cc3c2C(C)C)cn2nnnc12 [Example 470, 1-(4-(3-isopropyl-2-(8-methyltetrazolo[1,5-a]pyridin-6-yl)-1H-indol-5-yl)piperidin-1-yl)-2-(pyrrolidin-1-yl) ethan-1-one] |
| < 100 | 100 to 1000 | 100 to 1000 | CNCCN1CCC(c2ccc3[nH]c(-c4ccnc5[nH]ccc45)c(C)c3c2)CC1 [Example 668, N-methyl-2-(4-(3-methyl-2-(1H-pyrrolo[2,3-b]pyridin-4-yl)-1H-indol-5-yl)piperidin-1-yl)ethan-1-amine] |
| 1000 to 50000 | 1000 to 50000 | 100 to 1000 | CNCCN1CCC(c2ccc3[nH]c(-c4ccc5nccnc5c4)c(C)c3c2)CC1 [Example 658] |
| < 100 | 100 to 1000 | 1000 to 50000 | CC(C)c1c(-c2cn3ccnc3cc2C(F)(F)F)[nH]c2ccc(C3CCN(CC(=O)N(C)C)CC3)cc12 [Example 427, 2-(4-(3-isopropyl-2-(7-(trifluoromethyl)imidazo[1,2-a]pyridin-6-yl)-1H-indol-5-yl)piperidin-1-yl)-N,N-dimethylacetamide] |
| 100 to 1000 | < 100 | 100 to 1000 | Cc1cn2cc(-c3[nH]c4ccc(C5CCNCC5)cc4c3C(C)C)cc(F)c2n1 [Example 126, 8-fluoro-6-(3-isopropyl-5-(piperidin-4-yl)-1H-indol-2-yl)-2-methylimidazo[1,2-a]pyridine] |
| 1000 to 50000 | < 100 | 100 to 1000 | CNCC(=O)N1CCC(c2ccc3[nH]c(-c4cc(F)c5nccn5c4)c(CC(F)F)c3c2)CC1 [Example 545, 1-(4-(3-(2,2-difluoroethyl)-2-(8-fluoroimidazo[1,2-a]pyridin-6-yl)-1H-indol-5-yl)piperidin-1-yl)-2-(methylamino)ethan-1-one] |
